From US11884750B2, “Cationic cell penetrating peptides and the use thereof” (CELLTROY CO., LTD., priority 2021, dated 2024)
“Also recorded” adds a separate entry of the source.

Columns and labels:
SNU-46 cell line = assay: Cell penetration efficiency using laryngeal cells; assay type: cell-based; details: SNU-46 laryngeal cells, 4 μM FITC-conjugated CPP, one hour
In short: (§1)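 24 h culture, 10% FBS, 37 °C, 5% CO2 → 4 μM FITC-CPP or FITC-TAT, 1 h → 0.25% trypsin, D-PBS wash ×2 → flow cytometry of intracellular fluorescence.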

monocytes = assay: Cell penetration efficiency using monocytes; assay type: cell-based; details: 4 μM FITC-conjugated CPP, one hour
Procedure: (§2) Subsequently, to confirm whether the CPPs according to the present invention show excellent cell permeability into different types of cells/tissues, various tissue-derived cells were treated with biologically active molecule-conjugated CPPs to compare its delivery capacity with TAT. As in the previous examples, each cell was aliquoted in a plate at an appropriate density, and cultured in a 10% FBS-added medium under a condition of 37° C. and 5% CO2 for 24 hours. Subsequently, the cells were treated with 4 μM each of FITC-conjugated CPP or FITC-conjugated TAT and incubated for one hour. After the completion of the incubation, the cells were transferred to a sterile tube using 0.25% trypsin and centrifuged to remove the medium. Afterward, the cells were washed with 500 μL of D-PBS twice to completely remove the medium, and finally, resuspended in 400 μL of D-PBS and intracellular fluorescence was measured by flow cytometry (FACSCanto II).

HaCAT cells = assay: Cell penetration efficiency in human epidermal (skin) cells, 4 μM, flow cytometry; assay type: cell-based; details: 4 μM FITC-conjugated CPP, one hour
In short: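 HaCAT cells […] were grown 24 h in DMEM with 10% FBS at 37 °C, then treated 1 h with 4 μM FITC-conjugated peptide or FITC-TAT. Cells were trypsinised and washed in D-PBS. Intracellular fluorescence was read by flow cytometry.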

A-427 cell line = assay: Cell penetration efficiency using lung cells; assay type: cell-based; details: A-427 lung cells, 4 μM FITC-conjugated CPP, one hour
In short: as §1

HepG2 cell line = assay: Cell penetration efficiency using liver cells; assay type: cell-based; details: 4 μM FITC-conjugated CPP, one hour
Procedure: as §2

HEK293T cell line = assay: Cell penetration efficiency using kidney cells; assay type: cell-based; details: 4 μM FITC-conjugated CPP, one hour
In short: as §1

HGB cell line = assay: Cell penetration efficiency in glioblastoma cells; assay type: cell-based, human; details: 4 μM FITC-conjugated CPP, one hour
In short: as §1

macrophages = assay: Cell penetration efficiency using macrophages; assay type: cell-based; details: macrophages differentiated from THP1 cells, 4 μM FITC-conjugated CPP, one hour
Procedure: as §2, with “II). Macrophages were used by inducing differentiation from THP1 cells. Specifically, the THP-1 cells were aliquoted on a cover glass laid on a 24-well plate to have a density of 6×10^4 cells/well, and after the addition of 100 ng/mL of phorbol 12-myristate 13-acetate (PMA), the cells were incubated for 48 hours to induce the differentiation into macrophages. After 48 hours, the cells were washed with Dulbecco's phosphate buffered saline (DPBS) to perform an experiment.” for “II).”

HeLa cell line = assay: Cell penetration efficiency using cervical cancer cells; assay type: cell-based; details: 4 μM FITC-conjugated CPP, one hour
In short: as §1

SH-SY5Y cells = assay: Cell penetration efficiency in human neuroblastoma cells, 4 μM, flow cytometry; assay type: cell-based; details: one hour; for cell permeability compared with TAT: 4 μM FITC-conjugated CPP, flow cytometry; for Score / Score/TAT: 4 μM FITC-conjugated peptide; for Score: intracellular fluorescence by flow cytometry; for Score/TAT: ratio to FITC-conjugated TAT
In short: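 SH-SY5Y cells cultured 24 h in DMEM/10% FBS at 37 °C, 5% CO2, then exposed to 4 μM FITC-conjugated peptide (FITC-TAT as reference) for 1 h. After trypsinisation and D-PBS washes, intracellular fluorescence measured by flow cytometry.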

HT1080 cell line = assay: Cell penetration efficiency using connective tissue (fibrosarcoma) cells; assay type: cell-based; details: 4 μM FITC-conjugated CPP, one hour
In short: as §1

HDF cell line = assay: Cell penetration efficiency in skin cells (HDF); assay type: cell-based; details: 4 μM FITC-conjugated CPP, one hour
In short: as §1

Row | Sequence | cell permeability compared with TAT (SNU-46 cell line) | cell permeability compared with TAT (monocytes) | cell permeability compared with TAT (HaCAT cells) | cell permeability compared with TAT (A-427 cell line) | cell permeability compared with TAT (HepG2 cell line) | cell permeability compared with TAT (HEK293T cell line) | cell permeability compared with TAT (HGB cell line) | cell permeability compared with TAT (macrophages) | cell permeability compared with TAT (HeLa cell line) | cell permeability compared with TAT (SH-SY5Y cells) | Score (SH-SY5Y cells) | Score/TAT (SH-SY5Y cells) | cell permeability compared with TAT (HT1080 cell line) | cell permeability compared with TAT (HDF cell line) | cell permeability, fold of TAT (HGB cell line)
1 | AARIRALRRRRRRP [C72] | higher cell permeability | higher cell permeability | higher cell permeability | higher cell permeability | higher cell permeability | higher cell permeability | higher cell permeability | higher cell permeability | higher cell permeability | higher cell permeability | 1026 | 1.977 | higher cell permeability | higher cell permeability | –
2 | ARLRVILRRRHPRR [C95] | higher cell permeability | higher cell permeability | higher cell permeability | higher cell permeability | higher cell permeability | higher cell permeability | higher cell permeability | higher cell permeability | – | higher cell permeability | 2417 | 4.657 | higher cell permeability | higher cell permeability | ≥ 2 fold
3 | IPLRRLMRRARRHR [C112] | higher cell permeability | higher cell permeability | higher cell permeability | – | higher cell permeability | – | higher cell permeability | higher cell permeability | higher cell permeability | higher cell permeability | 946 | 1.823 | – | higher cell permeability | –
4 | RPRRKKQIKRLCKR [C16] | higher cell permeability | – | increased cell permeability; also recorded: higher cell permeability | higher cell permeability | higher cell permeability | higher cell permeability | higher cell permeability | higher cell permeability | higher cell permeability | higher cell permeability | 1680 | 3.237 | higher cell permeability | higher cell permeability | –
5 | SRRRLRRFLRRIAP [C185] | higher cell permeability | higher cell permeability | higher cell permeability | – | higher cell permeability | higher cell permeability | higher cell permeability | higher cell permeability | higher cell permeability | higher cell permeability | 1684 | 3.245 | – | higher cell permeability | –
